Patent US20240425457A1, “COMPOSITIONS AND METHODS FOR SUPPRESSING AND/OR TREATING METABOLIC DISEASES AND/OR A CLINICAL CONDITION THEREOF” (CK Biotech Inc., priority 2018, published 2024)
Entries after “also recorded” stand apart in the source; their conditions may differ.

Key:
HFD-induced obese mice = experiment: HFD-induced obese mice, oral administration during 16 weeks of HFD; assay type: in vivo; conditions: HFD 16 weeks
Protocol: Anti-obesity effects of […], a small molecule […] inhibitor. Referring now to FIG. 34, C57BL/6N mice were fed HFD for 16 weeks with or without oral administration of 25 mpk […] or Orlistat. Orlistat is an anti-obesity drug that is thought to act by limiting the absorption of fats from the diet (e.g., a lipase inhibitor). […] Referring now to FIG. 35, The C57BL/6N mice were grown with HFD for 16 weeks with or without oral administration of 25 mpk of […], […], and I3O. […] The increase in adipocyte cell sizes and enhancement of inflammation (evaluated by crown like structures; blue; FIG. 35B) were suppressed by treatment with […] in the HFD mice.

3T3-L1 preadipocytes = experiment: adipocyte differentiation of 3T3-L1 preadipocytes, Oil Red O staining; assay type: cell-based
Protocol: Cell culture and adipocyte differentiation. 3T3-L1 cells were seeded in six-well plates at a density of 3×10^4 cells per well. The cells were grown in Dulbecco's modified Eagle medium (DMEM) with 10% bovine calf serum (Gibco) until confluent. After confluence, cells were induced to differentiate in DMEM containing 10% fetal bovine serum (FBS; Gibco) and MDI (520 μM methylisobutylxanthine (IBMX; Sigma-Aldrich), 1 μM dexamethasone (Sigma-Aldrich), and 167 nM insulin (Gibco)) with or without A3334. On day 4, the medium was replaced with DMEM containing 10% FBS and 167 nM insulin with or without A3334 and changed with fresh identical medium every 2 days up to day 14 post-induction. Cells were incubated at 37° C. in a 5% CO2 environment.
Oil Red O staining. […] For the quantification of lipid contents, the Oil Red O was eluted by the addition of 500 μl isopropanol containing 4% nonidet P-40 to each well and the absorbance was measured spectrophotometrically at 590 nm.
ORO staining. […] In the morning each well was washed thoroughly with water and images of the ORO staining were recorded with a Nikon bright-field optical microscope (Nikon TE-2000U, Tokyo, Japan) and quantified for further statistical analysis. For quantify lipid contents, the ORO was eluted by addition of 500 µl isopropanol containing 4% nonidet P-40 to each well and the absorbance was measured spectrophotometrically at 590 nm. […]

MCD-induced NASH mice = experiment: MCD diet-induced NASH mice; assay type: in vivo; conditions: MCD diet 7 weeks; for hepatosteatosis (H&E): then 25 mg/kg daily oral gavage 3 weeks
Protocol: NASH study. Eight-week-old wild-type male C57BL/6N mice (KOATECH, Seoul, Korea) were fed on the methionine-choline deficient (MCD) diet for 7 weeks, followed by treatment with vehicle, A3334, A3051, or I3O of (25 mg kg^−1) sitagliptin (25 mg kg^−1) for another 3 weeks via daily oral gavage.
Collagen staining. 4 µm-liver tissues sections were stained using two common collagen staining methods. For Masson's trichrome staining, slides were fixed in Bouin's solution for 1 h. After incubation in Weigert's iron hematoxylin solution for 10 min, the slides were stained with Biebrich Scarlet-Acid Fuchsin and Aniline blue for 5 min. The collagen fibers were stained blue and the nuclei were stained black. For picrosirius red staining, sections were stained with Weigert's solution for 8 min and picrosirius red for 1 h. The collagen fibers were stained red with blue nuclei.

CXXC5-DVL interaction = target: T1, CXXC5-DVL interaction (Homo sapiens, UniProt O14640); experiment: in vitro CXXC5-DVL PPI inhibition screening assay (FITC-tagged PTD-DBMP on DVL-PDZ, fluorescence); assay type: binding
T1 sequence (O14640 251-323 limits assumed): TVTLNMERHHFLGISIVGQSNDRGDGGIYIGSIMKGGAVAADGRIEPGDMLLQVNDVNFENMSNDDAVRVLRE
Protocol: Screening for compounds that inhibit the CXXC5-DVL interaction. […] CELL. DEATH. DIFFER. […] After the addition of 10 μM FITC-tagged PTD-DBMP to each well, each compound in the chemical library or control (DMSO) was treated to the well at a final concentration of 30 μM. The fluorescence intensity was measured using a Fluorstar Optima microplate reader (BGM Lab Technologie, Ortenberg, Germany) and normalized as follows: “(‘compounds-treated group’−‘blank’)/(‘DMSO-treated control’−‘blank’)*100”.

| Compound | HFD-induced body weight gain and abdominal obesity (HFD-induced obese mice; 25 mpk oral) | adipocyte cell size and inflammation (crown like structures) (HFD-induced obese mice; 25 mpk oral) | fatty liver and white adipocyte tissue (HFD-induced obese mice; 25 mpk oral) | glucose tolerance (GTT) and insulin tolerance (ITT) (HFD-induced obese mice; 25 mpk oral) | triglyceride, total cholesterol, HDL-cholesterol (HFD-induced obese mice; 25 mpk oral) | inhibitory effect on weight gain compared with orlistat (HFD-induced obese mice; both 25 mpk) | adipogenic differentiation of 3T3-L1 preadipocytes (3T3-L1 preadipocytes) | ALT and AST levels (MCD-induced NASH mice; then 25 mg/kg daily 3 weeks) | FFAs and TG in serum (MCD-induced NASH mice; then 25 mg/kg daily 3 weeks) | fibrosis, histological analyses (MCD-induced NASH mice; then 25 mg/kg daily 3 weeks) | liver mRNA of pro-inflammation, FA oxidation, apoptosis and fibrosis markers (MCD-induced NASH mice; then 25 mg/kg daily 3 weeks) | hepatosteatosis (H&E) (MCD-induced NASH mice) | inhibition of CXXC5-DVL interaction (in words) (CXXC5-DVL interaction) |
| --- | --- | --- | --- | --- | --- | --- | --- | --- | --- | --- | --- | --- | --- |
| COc1ccc2c(c1)/C(=C1/Nc3ccccc3/C1=N\O)C(=O)N2 [Compound A3334, 5-Methoxyindirubin-3′-oxime] | not observed in the HFD mice treated with A3334 | suppressed by treatment with A3334 | suppression of fatty liver and white adipocyte tissue | significantly improved by the A3334 treatment | significantly reduced the level of triglyceride and total cholesterol and increased the level of HDL-cholesterol | much more significant than the effects observed in the HFD mice treated with orlistat | efficiently inhibited the adipogenic differentiation of 3T3-L1 preadipocytes; also recorded: significant anti-differentiation effects | mostly abolished by A3334 treatment | mostly abolished with A3334 treatment | improvement of the MCD-diet induced fibrosis by A3334 | significantly reduced by A3334 | significantly abolished by A3334 co-treatment | effectively inhibited interaction between CXXC5 and DVL |
| CO/N=C1/C(=C2/C(=O)Nc3cc(Cl)c(Cl)cc32)Nc2ccccc21 [Compound A3051, 5,6-dichloroindirubin-3′-methoxime] |  | showed reduction in adipocyte size and anti-inflammatory effects, but those effects were lower when compared to that of the A3334 treatment |  |  |  |  | significant anti-differentiation effects |  |  |  |  | also reduced hepatosteatosis, but revealed only marginal effects compared to A3334 | effectively inhibited interaction between CXXC5 and DVL |
